Patent publication US11911346B2, “Orally administrated therapeutic for treating mild cognitive impairment (MCI) and improving human cognitive function” (BrainCare LLC, priority 2021, dated 2024)

System: cognitive function of participants with Subjective Cognitive Decline
Assay: Cognitive Failures Questionnaire (CFQ), 8-week randomized study of one or two BCP capsules daily
Format: in vivo, human
Conditions: for CFQ score: Do you bump into people? / CFQ score: Do you confuse left and right when giving people directions? / CFQ score: Do you daydream when you ought to be listening to something? / CFQ score: Do you fail to hear people speaking to you when you are doing something? / CFQ score: Do you fail to listen to people's names when you are meeting them for the first time? / CFQ score: Do you fail to notice signposts on the road? / CFQ score: Do you fail to see what you want in a supermarket (although it's there)? / CFQ score: Do you find that you drop things? / CFQ score: Do you find that you forget appointments? / CFQ score: Do you find you accidentally misplace things like placing the fruit in the cupboard and the bowl in the refrigerator? / CFQ score: Do you find you can't quite remember something although it's “on the tip of your tongue”? / CFQ score: Do you find you can't think of anything to say? / CFQ score: Do you find you forget people's names? / CFQ score: Do you find you forget what you came to the store to buy? / CFQ score: Do you find you forget whether you've turned off a light or locked the door? / CFQ score: Do you find you forget which way to turn on a road you know well but rarely use? / CFQ score: Do you find you forget why you went from one place of the house to the other? / CFQ score: Do you find yourself suddenly wondering if you used a word correctly? / CFQ score: Do you forget where you put something like a newspaper or a book? / CFQ score: Do you have trouble making up your mind? / CFQ score: Do you lose track of paying bills? / CFQ score: Do you lose your temper and regret it? / CFQ score: Do you read something and find you haven't been thinking about it and must read it again? / CFQ score: Do you say something and realize afterwards that it might be taken as an insult? / CFQ score: Do you start doing one thing at home and get distracted and do something else (unintentionally)? / Distractibility summed sub-score of CFQ / False triggering summed sub-score of CFQ / Forgetfulness summed sub-score of CFQ / Total CFQ summed sub-score: lower is better
[1] = one capsule daily (90 mg BCP), week 4
[2] = one capsule daily (90 mg BCP), week 8
[3] = two capsules daily (180 mg BCP), week 4

C=C1CC/C=C(\C)CC[C@@H]2[C@@H]1CC2(C)C [BCP, beta-caryophyllene]
CFQ % better vs. baseline: Do you bump into people? [1]: 29% better
CFQ % better vs. baseline: Do you daydream when you ought to be listening to something? [1]: 16% better
CFQ % better vs. baseline: Do you fail to hear people speaking to you when you are doing something? [1]: 15% better
CFQ % better vs. baseline: Do you fail to notice signposts on the road? [1]: 17% better
CFQ % better vs. baseline: Do you fail to see what you want in a supermarket (although it's there)? [1]: 14% better
CFQ % better vs. baseline: Do you find that you drop things? [1]: 14% better
CFQ % better vs. baseline: Do you find you accidentally misplace things like placing the fruit in the cupboard and the bowl in the refrigerator? [1]: 17% better
CFQ % better vs. baseline: Do you find you can't quite remember something although it's “on the tip of your tongue”? [1]: 12% better
CFQ % better vs. baseline: Do you find you can't think of anything to say? [1]: 15% better
CFQ % better vs. baseline: Do you find you forget people's names? [1]: 12% better
CFQ % better vs. baseline: Do you find you forget what you came to the store to buy? [1]: 12% better
CFQ % better vs. baseline: Do you find you forget whether you've turned off a light or locked the door? [1]: 11% better
CFQ % better vs. baseline: Do you find you forget which way to turn on a road you know well but rarely use? [1]: 27% better
CFQ % better vs. baseline: Do you find yourself suddenly wondering if you used a word correctly? [1]: 14% better
CFQ % better vs. baseline: Do you have trouble making up your mind? [1]: 13% better
CFQ % better vs. baseline: Do you lose track of paying bills? [1]: 23% better
CFQ % better vs. baseline: Do you read something and find you haven't been thinking about it and must read it again? [1]: 11% better
CFQ % better vs. baseline: Do you say something and realize afterwards that it might be taken as an insult? [1]: 28% better
CFQ % worse vs. baseline: Do you confuse left and right when giving people directions? [1]: 17% worse
CFQ % worse vs. baseline: Do you find that you forget appointments? [1]: 25% worse
CFQ change vs. baseline: Do you fail to listen to people's names when you are meeting them for the first time? [1]: No change
CFQ change vs. baseline: Do you lose your temper and regret it? [1]: No change
CFQ change vs. baseline: Do you start doing one thing at home and get distracted and do something else (unintentionally)? [1]: no change
CFQ score: Do you bump into people? [1]: 0.5 ± 0.6
CFQ score: Do you confuse left and right when giving people directions? [1]: 0.7 ± 1.0
CFQ score: Do you daydream when you ought to be listening to something? [1]: 1.6 ± 0.8
CFQ score: Do you fail to hear people speaking to you when you are doing something? [1]: 1.7 ± 0.9
CFQ score: Do you fail to listen to people's names when you are meeting them for the first time? [1]: 2.2 ± 1.1
CFQ score: Do you fail to notice signposts on the road? [1]: 1.0 ± 0.7
CFQ score: Do you fail to see what you want in a supermarket (although it's there)? [1]: 1.2 ± 0.7
CFQ score: Do you find that you drop things? [1]: 1.2 ± 0.9
CFQ score: Do you find that you forget appointments? [1]: 1.0 ± 0.7
CFQ score: Do you find you accidentally misplace things like placing the fruit in the cupboard and the bowl in the refrigerator? [1]: 1.0 ± 0.8
CFQ score: Do you find you can't quite remember something although it's “on the tip of your tongue”? [1]: 2.3 ± 0.8
CFQ score: Do you find you can't think of anything to say? [1]: 1.1 ± 0.8
CFQ score: Do you find you forget people's names? [1]: 2.2 ± 1.0
CFQ score: Do you find you forget what you came to the store to buy? [1]: 1.5 ± 0.8
CFQ score: Do you find you forget whether you've turned off a light or locked the door? [1]: 1.6 ± 0.8
CFQ score: Do you find you forget which way to turn on a road you know well but rarely use? [1]: 0.8 ± 0.7
CFQ score: Do you find you forget why you went from one place of the house to the other? [1]: 1.7 ± 0.6
CFQ score: Do you find yourself suddenly wondering if you used a word correctly? [1]: 1.2 ± 0.8
CFQ score: Do you forget where you put something like a newspaper or a book? [1]: 1.8 ± 0.9
CFQ score: Do you have trouble making up your mind? [1]: 1.3 ± 0.7
CFQ score: Do you lose track of paying bills? [1]: 1.0 ± 0.8
CFQ score: Do you lose your temper and regret it? [1]: 1.1 ± 0.7
CFQ score: Do you read something and find you haven't been thinking about it and must read it again? [1]: 1.7 ± 0.9
CFQ score: Do you say something and realize afterwards that it might be taken as an insult? [1]: 1.1 ± 1.0
CFQ score: Do you start doing one thing at home and get distracted and do something else (unintentionally)? [1]: 2.3 ± 0.8
Distractibility summed sub-score of CFQ [1]: 11 ± 4
False triggering summed sub-score of CFQ [1]: 9 ± 4
Forgetfulness summed sub-score of CFQ [1]: 14 ± 5
Total CFQ summed sub-score [1]: 34 ± 10
CFQ % better vs. baseline: Do you daydream when you ought to be listening to something? [2]: 11% better
CFQ % better vs. baseline: Do you fail to hear people speaking to you when you are doing something? [2]: 20% better
CFQ % better vs. baseline: Do you fail to listen to people's names when you are meeting them for the first time? [2]: 14% better
CFQ % better vs. baseline: Do you fail to notice signposts on the road? [2]: 17% better
CFQ % better vs. baseline: Do you fail to see what you want in a supermarket (although it's there)? [2]: 7% better
CFQ % better vs. baseline: Do you find that you drop things? [2]: 14% better
CFQ % better vs. baseline: Do you find you accidentally misplace things like placing the fruit in the cupboard and the bowl in the refrigerator? [2]: 25% better
CFQ % better vs. baseline: Do you find you forget people's names? [2]: 12% better
CFQ % better vs. baseline: Do you find you forget what you came to the store to buy? [2]: 18% better
CFQ % better vs. baseline: Do you find you forget whether you've turned off a light or locked the door? [2]: 17% better
CFQ % better vs. baseline: Do you find you forget which way to turn on a road you know well but rarely use? [2]: 27% better
CFQ % better vs. baseline: Do you find yourself suddenly wondering if you used a word correctly? [2]: 14% better
CFQ % better vs. baseline: Do you have trouble making up your mind? [2]: 7% better
CFQ % better vs. baseline: Do you lose track of paying bills? [2]: 15% better
CFQ % better vs. baseline: Do you lose your temper and regret it? [2]: 9% better
CFQ % better vs. baseline: Do you read something and find you haven't been thinking about it and must read it again? [2]: 16% better
CFQ % better vs. baseline: Do you say something and realize afterwards that it might be taken as an insult? [2]: 20% better
CFQ % better vs. baseline: Do you start doing one thing at home and get distracted and do something else (unintentionally)? [2]: 4% better
CFQ % worse vs. baseline: Do you confuse left and right when giving people directions? [2]: 17% worse
CFQ % worse vs. baseline: Do you find that you forget appointments? [2]: 13% worse
CFQ change vs. baseline: Do you bump into people? [2]: No change
CFQ change vs. baseline: Do you find you can't think of anything to say? [2]: no change
CFQ score: Do you bump into people? [2]: 0.7 ± 0.6
CFQ score: Do you confuse left and right when giving people directions? [2]: 0.7 ± 0.9
CFQ score: Do you daydream when you ought to be listening to something? [2]: 1.7 ± 0.9
CFQ score: Do you fail to hear people speaking to you when you are doing something? [2]: 1.6 ± 0.9
CFQ score: Do you fail to listen to people's names when you are meeting them for the first time? [2]: 1.9 ± 1.2
CFQ score: Do you fail to notice signposts on the road? [2]: 1.0 ± 0.8
CFQ score: Do you fail to see what you want in a supermarket (although it's there)? [2]: 1.3 ± 0.9
CFQ score: Do you find that you drop things? [2]: 1.2 ± 0.7
CFQ score: Do you find that you forget appointments? [2]: 0.9 ± 0.8
CFQ score: Do you find you accidentally misplace things like placing the fruit in the cupboard and the bowl in the refrigerator? [2]: 0.9 ± 0.7
CFQ score: Do you find you can't quite remember something although it's “on the tip of your tongue”? [2]: 2.1 ± 0.7
CFQ score: Do you find you can't think of anything to say? [2]: 1.3 ± 0.8
CFQ score: Do you find you forget people's names? [2]: 2.2 ± 0.8
CFQ score: Do you find you forget what you came to the store to buy? [2]: 1.4 ± 0.8
CFQ score: Do you find you forget whether you've turned off a light or locked the door? [2]: 1.5 ± 0.7
CFQ score: Do you find you forget which way to turn on a road you know well but rarely use? [2]: 0.8 ± 0.7
CFQ score: Do you find you forget why you went from one place of the house to the other? [2]: 1.7 ± 0.6
CFQ score: Do you find yourself suddenly wondering if you used a word correctly? [2]: 1.2 ± 0.7
CFQ score: Do you forget where you put something like a newspaper or a book? [2]: 1.8 ± 0.7
CFQ score: Do you have trouble making up your mind? [2]: 1.4 ± 0.9
CFQ score: Do you lose track of paying bills? [2]: 1.1 ± 0.8
CFQ score: Do you lose your temper and regret it? [2]: 1.0 ± 0.6
CFQ score: Do you read something and find you haven't been thinking about it and must read it again? [2]: 1.6 ± 0.9
CFQ score: Do you say something and realize afterwards that it might be taken as an insult? [2]: 1.2 ± 0.7
CFQ score: Do you start doing one thing at home and get distracted and do something else (unintentionally)? [2]: 2.2 ± 0.6
Distractibility summed sub-score of CFQ [2]: 11 ± 3
False triggering summed sub-score of CFQ [2]: 9 ± 4
Forgetfulness summed sub-score of CFQ [2]: 13 ± 5
Total CFQ summed sub-score [2]: 33 ± 11
CFQ % better vs. baseline: Do you bump into people? [3]: 14% better
CFQ % better vs. baseline: Do you confuse left and right when giving people directions? [3]: 22% better
CFQ % better vs. baseline: Do you daydream when you ought to be listening to something? [3]: 28%
CFQ % better vs. baseline: Do you fail to hear people speaking to you when you are doing something? [3]: 12% better
CFQ % better vs. baseline: Do you fail to listen to people's names when you are meeting them for the first time? [3]: 22% better
CFQ % better vs. baseline: Do you fail to notice signposts on the road? [3]: 30% better
CFQ % better vs. baseline: Do you fail to see what you want in a supermarket (although it's there)? [3]: 15% better
CFQ % better vs. baseline: Do you find that you drop things? [3]: 27% better
CFQ % better vs. baseline: Do you find that you forget appointments? [3]: 30% better
CFQ % better vs. baseline: Do you find you accidentally misplace things like placing the fruit in the cupboard and the bowl in the refrigerator? [3]: 13% better
CFQ % better vs. baseline: Do you find you can't quite remember something although it's “on the tip of your tongue”? [3]: 20%
CFQ % better vs. baseline: Do you find you can't think of anything to say? [3]: 27% better
CFQ % better vs. baseline: Do you find you forget people's names? [3]: 20% better
CFQ % better vs. baseline: Do you find you forget what you came to the store to buy? [3]: 33% better
CFQ % better vs. baseline: Do you find you forget whether you've turned off a light or locked the door? [3]: 45%
CFQ % better vs. baseline: Do you find you forget which way to turn on a road you know well but rarely use? [3]: 33% better
CFQ % better vs. baseline: Do you find you forget why you went from one place of the house to the other? [3]: 39%
